# Assay results reported in ChEMBL document CHEMBL1201862, “PubChem BioAssay data set” (2004).
# Calls of active or inactive are those of the source.
# Legend:
# Type in all cases: functional
# Orexin receptor type 2 [1] = target: T1, Orexin receptor type 2 (Homo sapiens, UniProt O43614); experiment: Counterscreen assay for antagonists of the orexin 1 receptor (OX1R; HCRTR1): Fluorescence-based cell-based dose response assay for antagonists of the orexin 2 receptor (OX2R; HCRTR2), run by assay provider.
# T1 sequence (O43614 whole entry): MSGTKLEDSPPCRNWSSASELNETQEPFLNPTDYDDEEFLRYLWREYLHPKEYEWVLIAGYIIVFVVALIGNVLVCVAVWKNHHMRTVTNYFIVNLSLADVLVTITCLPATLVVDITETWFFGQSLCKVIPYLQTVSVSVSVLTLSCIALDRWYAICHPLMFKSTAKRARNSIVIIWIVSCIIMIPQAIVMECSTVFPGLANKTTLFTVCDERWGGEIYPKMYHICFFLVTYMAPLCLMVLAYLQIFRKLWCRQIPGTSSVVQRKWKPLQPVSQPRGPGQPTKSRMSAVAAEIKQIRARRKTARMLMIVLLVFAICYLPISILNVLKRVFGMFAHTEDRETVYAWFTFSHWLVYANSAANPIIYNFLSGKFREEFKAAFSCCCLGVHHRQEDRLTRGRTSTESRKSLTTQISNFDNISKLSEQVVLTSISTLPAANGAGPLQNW
# [2] = (§1) Counterscreen for antagonists of the orexin 1 receptor (OX1R; HCRTR1): Fluorescence-based cell-based high throughput dose response assay to identify antagonists of the parental CHO cell line. [Related pubchem assays (depositor defined):AID434989, AID435008, AID463079, AID485270, AID492963, AID492964, AID492965, AID493232, AID504699, AID504701]
# CHO-K1 = experiment: as §1, with “Homogeneous time resolved fluorescence (HTRF)-based” for “Fluorescence-based”, “cell-based” for “cell-based high throughput”, “CHO-K1” for “CHO”; conditions: Cricetulus griseus;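 further: potency for inhibition of ATP-stimulated IP1 production as antagonists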
# [3] = target: T2, Orexin/Hypocretin receptor type 1 (Homo sapiens, UniProt O43613); experiment: Homogeneous Time Resolved Fluorescence (HTRF)-based cell-based high throughput dose response assay for antagonists of the orexin 1 receptor (OX1R; HCRTR1). [Related pubchem assays (depositor defined):AID434989, AID435008, AID463079, AID485270, AID492963, AID492964, AID492965, AID493232, AID504717, AID504718]
# T2 sequence (O43613 whole entry): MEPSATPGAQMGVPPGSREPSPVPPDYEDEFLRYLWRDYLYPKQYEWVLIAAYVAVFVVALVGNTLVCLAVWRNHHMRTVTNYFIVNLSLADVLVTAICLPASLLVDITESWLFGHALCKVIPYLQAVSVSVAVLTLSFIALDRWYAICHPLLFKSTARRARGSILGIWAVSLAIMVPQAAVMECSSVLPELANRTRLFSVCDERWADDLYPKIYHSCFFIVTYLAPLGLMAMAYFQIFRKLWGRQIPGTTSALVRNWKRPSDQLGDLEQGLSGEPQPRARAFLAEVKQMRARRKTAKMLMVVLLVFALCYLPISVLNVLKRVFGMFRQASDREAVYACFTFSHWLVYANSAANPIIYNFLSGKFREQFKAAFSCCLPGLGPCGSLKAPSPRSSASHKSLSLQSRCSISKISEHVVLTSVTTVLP
# [4] = target: T2, Orexin/Hypocretin receptor type 1; experiment: Fluorescence-based cell-based high throughput dose response assay for antagonists of the orexin 1 receptor (OX1R; HCRTR1). [Related pubchem assays (depositor defined):AID434989, AID435008, AID463079, AID485270, AID492963, AID492964, AID492965, AID493232, AID504717, AID504718]
# Orexin receptor type 2 [5] = target: T1, Orexin receptor type 2; experiment: Counterscreen assay for antagonists of the orexin 1 receptor (OX1R; HCRTR1): Homogeneous Time Resolved Fluorescence (HTRF)-based cell-based dose response assay for antagonists of the orexin 2 receptor (OX2R; HCRTR2), run by assay provider.
# Phospholipase D1 = target: T3, Phospholipase D1 (Homo sapiens, UniProt Q13393); experiment: PLD1 inhibitor potency in cells, dose response (AID 602151);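 further: cellular PLD1 assay in Calu-1 cells stimulated with PMA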
# T3 sequence (Q13393 whole entry): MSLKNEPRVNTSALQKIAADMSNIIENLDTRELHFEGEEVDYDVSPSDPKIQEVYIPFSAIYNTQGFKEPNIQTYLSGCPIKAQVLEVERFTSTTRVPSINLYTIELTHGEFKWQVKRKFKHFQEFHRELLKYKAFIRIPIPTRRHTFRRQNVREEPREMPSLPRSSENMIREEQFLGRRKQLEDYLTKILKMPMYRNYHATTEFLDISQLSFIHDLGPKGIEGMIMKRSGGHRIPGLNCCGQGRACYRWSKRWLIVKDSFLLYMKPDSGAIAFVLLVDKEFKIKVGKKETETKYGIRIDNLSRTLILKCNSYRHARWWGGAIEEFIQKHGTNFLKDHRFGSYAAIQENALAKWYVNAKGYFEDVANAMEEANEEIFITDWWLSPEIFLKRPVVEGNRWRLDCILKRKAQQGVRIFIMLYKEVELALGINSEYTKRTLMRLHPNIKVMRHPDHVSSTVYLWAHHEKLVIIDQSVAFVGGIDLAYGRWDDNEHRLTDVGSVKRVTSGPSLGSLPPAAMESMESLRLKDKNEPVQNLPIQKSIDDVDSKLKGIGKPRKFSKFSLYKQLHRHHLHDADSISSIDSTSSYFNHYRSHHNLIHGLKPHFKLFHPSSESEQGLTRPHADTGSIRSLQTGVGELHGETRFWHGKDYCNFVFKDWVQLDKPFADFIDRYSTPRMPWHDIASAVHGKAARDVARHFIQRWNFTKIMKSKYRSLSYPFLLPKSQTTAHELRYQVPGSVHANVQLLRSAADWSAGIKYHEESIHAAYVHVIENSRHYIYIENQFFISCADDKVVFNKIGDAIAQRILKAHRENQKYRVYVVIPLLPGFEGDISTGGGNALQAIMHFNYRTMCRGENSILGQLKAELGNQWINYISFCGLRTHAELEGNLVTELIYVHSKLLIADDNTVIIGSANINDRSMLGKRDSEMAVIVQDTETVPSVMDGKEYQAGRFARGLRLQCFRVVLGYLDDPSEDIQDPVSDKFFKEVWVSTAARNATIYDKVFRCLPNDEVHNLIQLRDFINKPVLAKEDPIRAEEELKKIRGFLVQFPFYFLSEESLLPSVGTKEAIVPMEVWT
# Phospholipase D2 = Phospholipase D2 (Homo sapiens, UniProt O14939); experiment: PLD2 inhibitor potency in cells, dose response (AID 602147);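 further: cellular assay in HEK293 cells overexpressing GFP-tagged PLD2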
# [6] = target: T4, Apoptotic protease-activating factor 1 (Homo sapiens, UniProt O14727); experiment: SAR analysis of small molecule Activators of Apaf-1 in a Fluorescent assay.; conditions: read-out: EC50_Mean;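 further: caspase-3 cleavage of fluorogenic Rh110 DEVD substrate downstream of apoptosome activation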
# T4 sequence (O14727 whole entry): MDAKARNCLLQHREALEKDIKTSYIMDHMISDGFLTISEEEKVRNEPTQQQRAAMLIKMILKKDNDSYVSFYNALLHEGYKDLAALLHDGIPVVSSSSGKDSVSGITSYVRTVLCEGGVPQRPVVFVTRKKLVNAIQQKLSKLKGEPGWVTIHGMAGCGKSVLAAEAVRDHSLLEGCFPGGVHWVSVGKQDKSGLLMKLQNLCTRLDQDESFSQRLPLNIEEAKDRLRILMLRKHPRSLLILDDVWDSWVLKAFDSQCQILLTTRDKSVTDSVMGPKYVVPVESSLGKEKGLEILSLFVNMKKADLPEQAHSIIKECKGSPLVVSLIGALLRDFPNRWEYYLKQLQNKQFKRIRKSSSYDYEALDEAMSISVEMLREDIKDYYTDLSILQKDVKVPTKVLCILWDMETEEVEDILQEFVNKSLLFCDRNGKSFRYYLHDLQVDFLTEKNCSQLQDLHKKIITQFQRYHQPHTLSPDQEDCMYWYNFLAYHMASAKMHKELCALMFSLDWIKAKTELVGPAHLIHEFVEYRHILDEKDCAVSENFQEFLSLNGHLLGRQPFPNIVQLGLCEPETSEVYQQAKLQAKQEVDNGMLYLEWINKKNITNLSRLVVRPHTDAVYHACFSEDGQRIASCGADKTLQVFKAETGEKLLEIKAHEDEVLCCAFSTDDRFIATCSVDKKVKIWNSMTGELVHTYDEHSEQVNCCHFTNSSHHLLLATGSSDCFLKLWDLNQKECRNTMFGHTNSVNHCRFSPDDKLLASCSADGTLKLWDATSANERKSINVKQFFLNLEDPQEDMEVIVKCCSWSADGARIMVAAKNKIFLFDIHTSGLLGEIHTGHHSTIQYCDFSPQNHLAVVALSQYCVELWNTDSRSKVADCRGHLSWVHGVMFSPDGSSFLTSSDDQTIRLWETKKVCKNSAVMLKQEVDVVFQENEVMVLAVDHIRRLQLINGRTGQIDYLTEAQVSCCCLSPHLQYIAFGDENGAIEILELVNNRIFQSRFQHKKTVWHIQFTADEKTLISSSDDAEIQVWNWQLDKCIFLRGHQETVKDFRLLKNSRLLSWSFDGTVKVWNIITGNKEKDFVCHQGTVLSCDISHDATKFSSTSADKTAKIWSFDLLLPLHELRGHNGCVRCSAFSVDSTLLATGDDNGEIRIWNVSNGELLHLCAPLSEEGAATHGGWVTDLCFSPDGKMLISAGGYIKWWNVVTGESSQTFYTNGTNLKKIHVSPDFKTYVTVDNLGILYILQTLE
# Hexokinase HKDC1 = target: T5, Hexokinase HKDC1 (Homo sapiens, UniProt Q2TB90); experiment: SAR analysis of small molecule inhibitors of hexokinase domain containing I (HKDC1). [Related pubchem assays (depositor defined):AID493160, AID493190]
# T5 sequence (Q2TB90 whole entry): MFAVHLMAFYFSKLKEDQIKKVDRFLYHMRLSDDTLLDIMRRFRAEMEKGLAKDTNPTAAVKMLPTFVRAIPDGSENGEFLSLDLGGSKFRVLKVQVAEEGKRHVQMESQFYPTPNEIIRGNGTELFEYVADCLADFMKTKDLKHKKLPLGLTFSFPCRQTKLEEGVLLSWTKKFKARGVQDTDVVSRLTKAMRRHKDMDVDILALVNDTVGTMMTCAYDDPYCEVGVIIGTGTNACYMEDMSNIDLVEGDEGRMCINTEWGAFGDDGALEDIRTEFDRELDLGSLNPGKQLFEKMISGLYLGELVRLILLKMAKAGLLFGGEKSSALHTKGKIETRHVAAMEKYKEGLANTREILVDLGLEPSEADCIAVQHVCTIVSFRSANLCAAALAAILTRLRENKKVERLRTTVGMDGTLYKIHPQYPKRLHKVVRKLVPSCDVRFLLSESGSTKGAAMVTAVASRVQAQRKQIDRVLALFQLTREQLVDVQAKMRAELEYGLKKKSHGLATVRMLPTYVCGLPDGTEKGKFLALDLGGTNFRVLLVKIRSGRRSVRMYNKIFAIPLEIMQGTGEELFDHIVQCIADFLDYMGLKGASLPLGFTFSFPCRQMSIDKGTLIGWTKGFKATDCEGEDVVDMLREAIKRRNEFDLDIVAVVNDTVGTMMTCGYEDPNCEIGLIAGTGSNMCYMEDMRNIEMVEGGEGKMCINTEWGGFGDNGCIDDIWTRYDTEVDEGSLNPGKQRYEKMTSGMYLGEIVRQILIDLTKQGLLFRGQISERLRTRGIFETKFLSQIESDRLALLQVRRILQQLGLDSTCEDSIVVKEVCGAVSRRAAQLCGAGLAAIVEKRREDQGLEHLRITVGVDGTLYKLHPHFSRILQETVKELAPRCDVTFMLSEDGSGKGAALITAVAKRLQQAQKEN
# Hexokinase-1 = Hexokinase-1 (Homo sapiens, UniProt P19367); experiment: SAR analysis of small molecule inhibitors of hexokinase domain containing I (HKDC1) in the hexokinase 1 selectivity assay. [Related pubchem assays (depositor defined):AID493160, AID493190]
# [7] = target: Beta-2 adrenergic receptor (Homo sapiens, UniProt P07550); experiment: beta2AR agonists driving receptor internalization, dose response, cell-based, FAP fluorogen, flow cytometry, cherry pick 1 (AID 588763)
# Chain of Beta-2 adrenergic receptor (P07550 whole entry): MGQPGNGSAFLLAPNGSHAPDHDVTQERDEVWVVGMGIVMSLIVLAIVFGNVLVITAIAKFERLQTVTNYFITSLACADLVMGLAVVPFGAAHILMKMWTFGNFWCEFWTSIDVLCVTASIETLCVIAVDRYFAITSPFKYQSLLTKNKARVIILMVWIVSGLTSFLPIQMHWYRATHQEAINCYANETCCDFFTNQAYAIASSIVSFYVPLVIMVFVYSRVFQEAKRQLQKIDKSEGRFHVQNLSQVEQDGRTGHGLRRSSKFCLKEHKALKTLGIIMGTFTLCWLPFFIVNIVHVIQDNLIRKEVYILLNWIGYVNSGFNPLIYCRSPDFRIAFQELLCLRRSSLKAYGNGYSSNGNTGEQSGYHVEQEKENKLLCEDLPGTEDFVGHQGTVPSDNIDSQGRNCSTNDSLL
# Chain of Hexokinase-1 (P19367 whole entry, the tested form may be a part): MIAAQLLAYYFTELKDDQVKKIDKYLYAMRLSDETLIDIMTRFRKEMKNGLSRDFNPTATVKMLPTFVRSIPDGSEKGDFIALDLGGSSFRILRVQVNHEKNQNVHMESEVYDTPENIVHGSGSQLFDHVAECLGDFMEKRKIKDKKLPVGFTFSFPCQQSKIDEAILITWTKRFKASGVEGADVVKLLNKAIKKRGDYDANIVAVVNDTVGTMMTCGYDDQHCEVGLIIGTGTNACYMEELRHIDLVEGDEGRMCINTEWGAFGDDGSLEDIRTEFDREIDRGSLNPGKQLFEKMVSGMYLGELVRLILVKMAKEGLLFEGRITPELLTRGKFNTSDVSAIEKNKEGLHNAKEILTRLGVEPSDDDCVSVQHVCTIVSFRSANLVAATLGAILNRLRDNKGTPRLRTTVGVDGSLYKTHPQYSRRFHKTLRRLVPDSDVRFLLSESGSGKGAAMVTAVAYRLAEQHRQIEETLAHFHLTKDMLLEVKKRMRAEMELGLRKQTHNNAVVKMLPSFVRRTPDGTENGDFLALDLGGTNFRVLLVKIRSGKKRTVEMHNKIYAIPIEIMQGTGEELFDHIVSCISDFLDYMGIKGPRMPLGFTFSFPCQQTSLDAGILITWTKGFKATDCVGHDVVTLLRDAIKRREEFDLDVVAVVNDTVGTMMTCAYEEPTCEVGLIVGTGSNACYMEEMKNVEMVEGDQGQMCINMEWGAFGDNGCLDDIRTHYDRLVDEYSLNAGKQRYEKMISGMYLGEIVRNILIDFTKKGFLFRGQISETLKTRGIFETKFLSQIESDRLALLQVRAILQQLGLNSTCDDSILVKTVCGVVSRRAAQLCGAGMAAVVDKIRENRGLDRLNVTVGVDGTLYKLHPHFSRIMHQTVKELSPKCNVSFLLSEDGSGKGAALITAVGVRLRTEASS
# Chain of Phospholipase D2 (O14939 whole entry): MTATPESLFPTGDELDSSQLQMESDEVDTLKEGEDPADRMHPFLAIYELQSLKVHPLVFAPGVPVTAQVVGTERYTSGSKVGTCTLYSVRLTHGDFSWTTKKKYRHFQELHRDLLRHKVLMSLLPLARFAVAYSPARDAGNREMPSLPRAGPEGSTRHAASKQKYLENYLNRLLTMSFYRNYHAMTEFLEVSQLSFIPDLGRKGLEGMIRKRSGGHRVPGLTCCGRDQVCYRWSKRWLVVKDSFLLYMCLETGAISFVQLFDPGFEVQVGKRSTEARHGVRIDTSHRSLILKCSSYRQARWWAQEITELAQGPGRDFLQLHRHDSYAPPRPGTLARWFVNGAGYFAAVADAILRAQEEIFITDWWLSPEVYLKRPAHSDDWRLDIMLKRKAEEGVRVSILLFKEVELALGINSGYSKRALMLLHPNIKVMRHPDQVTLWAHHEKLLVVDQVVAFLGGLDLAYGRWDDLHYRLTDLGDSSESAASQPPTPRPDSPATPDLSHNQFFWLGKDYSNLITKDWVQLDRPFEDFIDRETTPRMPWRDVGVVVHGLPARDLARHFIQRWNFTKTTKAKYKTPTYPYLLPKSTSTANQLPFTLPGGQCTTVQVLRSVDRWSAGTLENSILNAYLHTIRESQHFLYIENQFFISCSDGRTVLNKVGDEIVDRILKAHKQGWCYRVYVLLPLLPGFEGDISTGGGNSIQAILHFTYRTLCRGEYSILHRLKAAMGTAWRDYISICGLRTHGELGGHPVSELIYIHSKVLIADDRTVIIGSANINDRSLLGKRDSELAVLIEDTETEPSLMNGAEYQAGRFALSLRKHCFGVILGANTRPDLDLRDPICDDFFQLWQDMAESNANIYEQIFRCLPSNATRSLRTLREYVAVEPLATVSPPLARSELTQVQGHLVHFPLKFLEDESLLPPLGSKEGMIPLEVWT
structure (smiles),measurement,setting,value
O=C(Nc1cccc(S(=O)(=O)NCc2ccco2)c1)c1cc(-c2ccccc2)nc2ccccc12,IC50,Orexin receptor type 2 [1],16.9 µM (inactive)
same,IC50,[2],> 49.7 µM (inactive)
same,IC50,CHO-K1,> 66.2 µM (inactive)
same,IC50,[3],2.98 µM (active)
same,IC50,[4],> 5.53 µM (active)
same,IC50,Orexin receptor type 2 [5],> 50 µM (inactive)
O=C(c1ccc(S(=O)(=O)Nc2ccc(F)cc2)cc1)N1CCN(c2ccccn2)CC1,IC50,Orexin receptor type 2 [1],15.6 µM (inactive)
same,IC50,[2],14.7 µM (inactive)
same,IC50,CHO-K1,> 66.2 µM (inactive)
same,IC50,[3],4.45 µM (active)
same,IC50,[4],7.1 µM (active)
same,IC50,Orexin receptor type 2 [5],> 50 µM (inactive)
O=C(NCCN1CCC(n2c(=O)[nH]c3ccc(F)cc32)CC1)c1cccc2c1C(=O)c1ccccc1-2,IC50,Phospholipase D1,0.007 µM (active)
same,IC50,Phospholipase D2,0.17 µM (active)
COC(=O)c1coc(-c2ccc(F)cc2)n1,EC50,[6],> 100 µM (inactive)
COc1ccc(CNc2cc3n(c(=O)n2)CCc2cc(OC)c(OC)cc2-3)cc1,IC50,Hexokinase HKDC1,> 80 µM (inactive)
same,IC50,Hexokinase-1,> 80 µM (inactive)
CC(=O)c1ccc(OCc2cc(C(=O)N(C)CCOc3ccc(C)cc3)no2)cc1,EC50,[7],1.91 µM (active)
C[C@H](CN1CCC2(CC1)C(=O)NCN2c1ccccc1)NC(=O)c1cc(Br)c(Br)o1,IC50,Phospholipase D1,0.33 µM (active)
same,IC50,Phospholipase D2,2.3 µM (active)
O=S(=O)(Nc1cccc2ccccc12)c1ccc(Cl)cc1,IC50,Hexokinase HKDC1,> 80 µM (inactive)
same,IC50,Hexokinase-1,> 80 µM (inactive)
